Results on 51 molecules are retold here after PubChem BioAssay AID179 (DTP/NCI, 2004).

Activity calls are given as the source filed them.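 How the source made its calls: active means compounds giving half or more protection of infected cells from virus-caused growth loss, again on retest; inactive means the rest.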 Where only a bound is given, the exact number is not on record here.

This assay deals with CEM cells HIV-1 protection, formazan growth assay. The assay can be described thus: NCI AIDS Antiviral Assay. The following applies: for IC50: measured here: growth of uninfected CEM cells. In outline: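 Screen of anti-HIV-1 activity in human CEM cells using a formazan-based growth measurement at five drug concentrations. Hits with 50% or greater protection were repeated, and confirmation required reproducible complete protection.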

Take `C[Si]1(C)[Si](C)(C)[Si](C)(C)[Si](C)(C)[Si](C)(C)[Si]1(C)C`: the EC50 was more than 28.8 µM and the concentration for half-maximal inhibition (IC50) is more than 28.8 µM.
Turning to `CC1NOC(=O)C1N=Nc1cccc(Cl)c1` (stereo unspecified), the EC50 was 5.25 µM and the IC50 was 30.2 µM.
Regarding `CCOC(=O)C(NC(C)=O)(Nc1ccc(S(N)(=O)=O)cc1)C(F)(F)F` (stereo unspecified), the EC50 is more than 200 µM and the IC50 is more than 200 µM.
For the molecule `O=C1NN2CCN=C2c2cnccc21`, the EC50 is more than 1320 µM and the half-inhibitory concentration (IC50) is more than 1320 µM.
As to `CN1CCCS/C1=C1/SC(=S)N(c2ccccc2)C1=O`, the EC50 was more than 30.9 µM and the IC50 is more than 30.9 µM.
With `CN1CCN(Cc2ccccc2)CC1CC#N` (stereo unspecified), the EC50 is 1.95 µM and the 50% inhibitory concentration (IC50) is more than 200 µM.
`Cc1cnc2c(c1)C(=O)C1=C(OC(C)(C)CC1O)C2=O` (stereo unspecified): the EC50 is more than 26.3 µM and the IC50 is 3.39 µM.
As to `CC(C)(O)C(O)COc1c2c(cc3oc(=O)ccc13)OCO2` (stereo unspecified), the EC50 is more than 813 µM and the IC50 was 339 µM.
In the same order, the values of `O=C(/C=C/c1c(O)ccc2ccccc12)c1ccc2ccccc2c1` are more than 112 µM and more than 112 µM.
`N#Cc1c(N)nc2c3c1NC(=O)C(C(N)=O)C3c1ccccc1O2` (stereo unspecified): the EC50 is more than 200 µM and the half-inhibitory concentration (IC50) was more than 200 µM.
Consider `C=C(CN(C)C)C(=O)c1ccc(C)cc1C`, for which the EC50 was more than 200 µM and the IC50 came to 11.7 µM.
Turning to `CCCC(C(=O)OCC(C)N1CCCC1(C)C)C1CCCC1` (stereo unspecified), the result was inactive.
With `Cc1nc(Cl)c(Cl)c(Cl)n1`, the result was inactive.
For the molecule `CN(C)c1ccc(N=C2N=C(Nc3ccccc3)C(=Nc3ccccc3)S2)cc1`, the EC50 was more than 100 µM and the half-inhibitory concentration (IC50) worked out at 72.4 µM.
In the same order, the values of `COc1ccc(OC)c2[nH]c(Sc3c([N+](=O)[O-])ncn3C)nc12` are more than 21.4 µM and 7.08 µM.
Take `OCC1OC(n2cnc3c(Cl)ncnc32)C(O)C1O` (stereo unspecified): the result was inactive.
In the case of `CC1=C[C@H]2O[C@@H]3C[C@H]4OC(=O)/C=C\C=C\C(C(C)O)OCC[C@@H](C)[C@H](O)C(=O)OC[C@@]2(CC1)[C@]4(C)[C@]31CO1` (stereo partly specified), the EC50 was more than 0.0479 µM and the IC50 came out at 0.000102 µM.
Turning to `Cc1cccc(CC(C)(C)C)c1NC(=O)C(=O)C(C(=O)c1ccc2ccccc2c1)C1OC(=O)c2ccccc21` (stereo unspecified), the EC50 is more than 126 µM and the concentration for half-maximal inhibition (IC50) stood at 56.2 µM.
In the case of `CC1=CC(=O)Nc2ccccc2S1`, the EC50 is more than 234 µM and the IC50 came out at 85.1 µM.
In the same order, the values of `COc1ccc2c(c1)N(C)CCCC2=O` are more than 200 µM and 151 µM.
In the same order, the values of `O=C(O)CN(CCN(CC(=O)O)CC(=O)O)CCN(CC(=O)O)CC(=O)O` are more than 200 µM and more than 200 µM.
`O=C(Nc1nc(C23CC4CC(CC(C4)C2)C3)cs1)c1cc2cc([N+](=O)[O-])ccc2oc1=O`: the EC50 is more than 200 µM and the concentration for half-maximal inhibition (IC50) amounted to 178 µM.
In the same order, the values of `Cc1nc2sc(CCl)nn2c(=O)c1Cl` are more than 200 µM and 3.98 µM.
In the same order, the values of `CC1(C)OCC(C2OC(N3O[C@H](CI)C[C@@H]3c3ccccc3)C3OC(C)(C)OC23)O1` (stereo partly specified) are 138 µM and more than 200 µM.
In the same order, the values of `O=C(c1ccccc1)N1CCN(C(=S)NC2CCCCC2)C1=S` are more than 200 µM and 12 µM.
As for `Cc1c(CCCl)c(N=P(c2ccccc2)(c2ccccc2)c2ccccc2)n2c(nc3ccccc32)c1C#N`, the EC50 was more than 200 µM and the half-maximal inhibitory concentration (IC50) was more than 200 µM.
Take `O=C(/C=C/c1ccc(OCCCCCCCCCCOc2ccc(/C=C/C(=O)c3ccc(Cl)cc3)cc2)cc1)c1ccc(Cl)cc1`: the EC50 was more than 4.17 µM and the 50% inhibitory concentration (IC50) is more than 4.17 µM.
Take `CC(=O)OCC(=O)[C@@]12OC(C)(C)O[C@@H]1C[C@H]1[C@@H]3CC(C=O)=C4C=C(OCCCl)CC[C@]4(C)[C@@]3(F)[C@@H](O)C[C@@]12C`: the EC50 was more than 200 µM and the 50% inhibitory concentration (IC50) turned out to be 6.46 µM.
For `Cc1nn2c(nc1=O)sc1ccc3ccccc3c12`, in that order: more than 83.2 µM and more than 83.2 µM.
In the same order, the values of `N#CC(C#N)=C1C(C#N)=C(N)NC12OCCO2` are more than 200 µM and more than 200 µM.
As for `Cc1cc(Cl)cc(S)c1S(=O)(=O)Nc1nnc2ccc3ccccc3n12`, the EC50 was more than 200 µM and the half-maximal inhibitory concentration (IC50) came out at 93.3 µM.
For `CC(C)Cc1cccc(C(C)C)c1NC(=O)CCC(=O)N/N=C1\C(=N/NC(=O)CCC(=O)Nc2c(C(C)C)cccc2C(C)C)C(c2ccc3c(c2)OCO3)Oc2ccccc21` (stereo unspecified), in that order: more than 112 µM and 81.3 µM.
For `Cc1ccc(-c2c(C#N)c(N)nc3c2CCS(=O)(=O)c2ccccc2-3)cc1`, in that order: more than 200 µM and 77.6 µM.
In the same order, the values of `CC(=O)Nc1ccccc1/C(C#N)=C/c1ccccc1` are more than 200 µM and more than 200 µM.
Take `O=[N+]([O-])c1cnn(C2=CNc3ccccc3N=C2)c1`: the EC50 was more than 7.41 µM and the IC50 was more than 7.41 µM.
With `CC(C)NC1CCCCC2c3cc(F)ccc3[C@]12O` (stereo partly specified), the 50% effective concentration (EC50) was 60.3 µM and the half-inhibitory concentration (IC50) is more than 200 µM.
Turning to `O=S(=O)(c1ccccc1)c1nccs1`, the 50% effective concentration (EC50) was 110 µM and the concentration for half-maximal inhibition (IC50) came to 575 µM.
For the molecule `O=C(CC1(O)C(=O)Nc2ccc([N+](=O)[O-])cc21)c1ccncc1` (stereo unspecified), the EC50 was more than 20.9 µM and the IC50 is more than 20.9 µM.
As to `Cc1cc(C)c2c(c1)C/C(=C\c1cccc(C)c1C(=O)O)C2=O`, the EC50 is more than 200 µM and the IC50 was 129 µM.
Regarding `COc1ccc(OC)c2c(=S)c3ccccc3[nH]c12`, the result was inactive.
For the molecule `C=C1C(=O)OC2/C=C(\C)C3OC3/C=C(/C(=O)OC)C(O)C(OC(=O)C3(C)OC3C)C12` (stereo unspecified), the EC50 was more than 120 µM and the 50% inhibitory concentration (IC50) was found to be 0.302 µM.
For `CCOC(=O)c1ccc(-c2cccs2)[nH]1`, in that order: more than 200 µM and 38.9 µM.
Turning to `O=C1C=CC(=O)C2C1Cc1ccccc1C2c1ccccc1` (stereo unspecified), the result was inactive.
With `COc1ccc(C=C(C(C)=O)C(C)=O)cc1`, the EC50 is more than 437 µM and the IC50 was found to be 58.9 µM.
In the same order, the values of `O=C(OCCN=c1c2ccccc2ccc2ccccc12)c1ccc([N+](=O)[O-])cc1` are more than 200 µM and more than 200 µM.
Turning to `CN(C)c1nc2oc(-c3ccccc3)c(-c3ccccc3)c2c2nnnn12`, the result was inactive.
`CCOC(=O)Nc1nn(-c2ccc3ccccc3n2)c(=O)[nH]1`: the EC50 is more than 63.1 µM and the half-inhibitory concentration (IC50) is 10 µM.
In the same order, the values of `C/C(=N/NC(N)=S)C(CN1CCOCC1)C(C1=C(O)c2ccccc2OC1)c1ccccc1` (stereo unspecified) are more than 37.2 µM and more than 37.2 µM.
In the same order, the values of `CC(C)CCCC(C)[C@H]1CC[C@@H]2[C@H]3CC[C@H]4C[C@@H](CCC=C(c5cc(Cl)c(OCc6cccc([N+](=O)[O-])c6)c(C(=O)OCc6cccc([N+](=O)[O-])c6)c5)c5cc(Cl)c(OCc6cccc([N+](=O)[O-])c6)c(C(=O)OCc6cccc([N+](=O)[O-])c6)c5)CC[C@]4(C)[C@@H]3CC[C@]12C` (stereo partly specified) are more than 100 µM and more than 100 µM.
In the case of `COc1ccc(C2=C(N)c3cc(OC)ccc3C2=O)cc1`, the EC50 is more than 200 µM and the 50% inhibitory concentration (IC50) is more than 200 µM.
With `O=C(Cc1ccccc1)NCCc1ccc(O)c(O)c1`, the EC50 was more than 200 µM and the IC50 stood at 27.5 µM.

A word on the EC50: it is the concentration at which the effect is half-maximal. The IC50 is the concentration at which inhibition is half-maximal.
